# Laboratory results: ChEMBL document CHEMBL1133844, “2-Benzyl-3,4-iminobutanoic acid as inhibitor of carboxypeptidase A” (Bioorg Med Chem Lett, 2001)
# Assay: The compound was tested for the inhibition of Carboxypeptidase A
row,Compound,Ki [µM]
1,O=C(O)[C@@H](Cc1ccccc1)[C@H]1CN1,120
2,O=C(O)C(Cc1ccccc1)c1c[nH]cn1 (racemic),0.8
3,"O=C(O)[C@@H](Cc1ccccc1)[C@@H]1CN1 (single isomer, unassigned)",510
4,O=C(O)C(Cc1ccccc1)C1CC1 (racemic),792
5,O=C(O)[C@H](Cc1ccccc1)[C@@H]1CN1,35
6,"O=C(O)[C@H](Cc1ccccc1)[C@H]1CN1 (single isomer, unassigned)",230
7,O=C(O)[C@@H](Cc1ccccc1)C1CC1,646
8,O=C(O)[C@H](Cc1ccccc1)C1CC1,803
